What was measured:
Type in all cases: functional
[1] = tested on: HCT-116; test: Growth inhibition of human HCT116 cells assessed as cell growth at 0.01 uM incubated for 48 hrs by sulforhodamine B assay relative to control; details: HCT-116, 48 h, read-out: Activity
[2] = tested on: NCI/ADR-RES; test: Growth inhibition of human NCI/ADR-RES cells assessed as cell growth at 0.01 uM incubated for 48 hrs by sulforhodamine B assay relative to control; details: read-out: Activity
[3] = tested on: PC-3; test: Growth inhibition of human PC3 cells assessed as cell growth at 0.01 uM incubated for 48 hrs by sulforhodamine B assay relative to control; details: PC-3, 48 h, read-out: Activity
[4] = tested on: DU-145; test: Growth inhibition of human DU145 cells assessed as cell growth at 0.1 uM incubated for 48 hrs by sulforhodamine B assay relative to control; details: DU-145, 48 h, read-out: Activity
[5] = tested on: RPMI-8226; test: Growth inhibition of human RPMI8226 cells assessed as cell growth at 1 uM incubated for 48 hrs by sulforhodamine B assay relative to control; details: RPMI-8226, 48 h, read-out: Activity
[6] = tested on: SR; test: Growth inhibition of human SR cells assessed as cell growth at 1 uM incubated for 48 hrs by sulforhodamine B assay relative to control; details: read-out: Activity
[7] = tested on: NCI-H322M; test: Growth inhibition of human NCI-H322M cells assessed as cell growth at 1 uM incubated for 48 hrs by sulforhodamine B assay relative to control; details: read-out: Activity
[8] = tested on: NCI-H460; test: Growth inhibition of human NCI-H460 cells assessed as cell growth at 1 uM incubated for 48 hrs by sulforhodamine B assay relative to control; details: NCI-H460, 48 h, read-out: Activity
[9] = tested on: SF-539; test: Growth inhibition of human SF539 cells assessed as cell growth at 1 uM incubated for 48 hrs by sulforhodamine B assay relative to control; details: SF-539, 48 h, read-out: Activity
[10] = tested on: ACHN; test: Growth inhibition of human ACHN cells assessed as cell growth at 1 uM incubated for 48 hrs by sulforhodamine B assay relative to control; details: read-out: Activity
[11] = tested on: UO-31; test: Growth inhibition of human UO31 cells assessed as cell growth at 1 uM incubated for 48 hrs by sulforhodamine B assay relative to control; details: UO-31, 48 h, read-out: Activity
[12] = tested on: CCRF-CEM; test: Growth inhibition of human CCRF-CEM cells assessed as cell growth at 10 uM incubated for 48 hrs by sulforhodamine B assay relative to control; details: read-out: Activity
[13] = tested on: A549; test: Growth inhibition of human A549/ATCC cells assessed as cell growth at 10 uM incubated for 48 hrs by sulforhodamine B assay relative to control; details: A549, 48 h, read-out: Activity
[14] = tested on: NCI-H322M; test: Growth inhibition of human NCI-H322M cells assessed as cell growth at 10 uM incubated for 48 hrs by sulforhodamine B assay relative to control; details: read-out: Activity
[15] = tested on: HT-29; test: Growth inhibition of human HT-29 cells assessed as cell growth at 0.003 uM incubated for 48 hrs by sulforhodamine B assay relative to control; details: HT-29, 48 h, read-out: Activity
[16] = tested on: SF-268; test: Growth inhibition of human SF268 cells assessed as cell growth at 0.003 uM incubated for 48 hrs by sulforhodamine B assay relative to control; details: SF-268, 48 h, read-out: Activity
[17] = tested on: SF-539; test: Growth inhibition of human SF539 cells assessed as cell growth at 0.003 uM incubated for 48 hrs by sulforhodamine B assay relative to control; details: SF-539, 48 h, read-out: Activity
[18] = tested on: Malme-3M; test: Growth inhibition of human MALME-3M cells assessed as cell growth at 0.003 uM incubated for 48 hrs by sulforhodamine B assay relative to control; details: read-out: Activity
[19] = tested on: UACC-62; test: Growth inhibition of human UACC62 cells assessed as cell growth at 0.003 uM incubated for 48 hrs by sulforhodamine B assay relative to control; details: UACC-62, 48 h, read-out: Activity
[20] = tested on: NCI/ADR-RES; test: Growth inhibition of human NCI/ADR-RES cells assessed as cell growth at 0.003 uM incubated for 48 hrs by sulforhodamine B assay relative to control; details: read-out: Activity
[21] = tested on: SR; test: Growth inhibition of human SR cells assessed as cell growth at 0.03 uM incubated for 48 hrs by sulforhodamine B assay relative to control; details: read-out: Activity
[22] = tested on: A549; test: Growth inhibition of human A549/ATCC cells assessed as cell growth at 0.03 uM incubated for 48 hrs by sulforhodamine B assay relative to control; details: A549, 48 h, read-out: Activity
[23] = tested on: NCI-H226; test: Growth inhibition of human NCI-H226 cells assessed as cell growth at 0.03 uM incubated for 48 hrs by sulforhodamine B assay relative to control; details: NCI-H226, 48 h, read-out: Activity
[24] = tested on: HCT-15; test: Growth inhibition of human HCT15 cells assessed as cell growth at 0.03 uM incubated for 48 hrs by sulforhodamine B assay relative to control; details: HCT-15, 48 h, read-out: Activity
[25] = tested on: SNB-19; test: Growth inhibition of human SNB19 cells assessed as cell growth at 0.03 uM incubated for 48 hrs by sulforhodamine B assay relative to control; details: SNB-19, 48 h, read-out: Activity
[26] = tested on: SK-MEL-28; test: Growth inhibition of human SK-MEL-28 cells assessed as cell growth at 0.03 uM incubated for 48 hrs by sulforhodamine B assay relative to control; details: SK-MEL-28, 48 h, read-out: Activity
[27] = tested on: 786-0; test: Growth inhibition of human 786-0 cells assessed as cell growth at 0.03 uM incubated for 48 hrs by sulforhodamine B assay relative to control; details: 786-0, 48 h, read-out: Activity
[28] = tested on: MCF7; test: Growth inhibition of human MCF7 cells assessed as cell growth at 0.03 uM incubated for 48 hrs by sulforhodamine B assay relative to control; details: MCF7, 48 h, read-out: Activity
[29] = tested on: BT-549; test: Growth inhibition of human BT549 cells assessed as cell growth at 0.3 uM incubated for 48 hrs by sulforhodamine B assay relative to control; details: BT-549, 48 h, read-out: Activity
[30] = tested on: CCRF-CEM; test: Growth inhibition of human CCRF-CEM cells assessed as cell growth at 3 uM incubated for 48 hrs by sulforhodamine B assay relative to control; details: read-out: Activity
[31] = tested on: NCI-H322M; test: Growth inhibition of human NCI-H322M cells assessed as cell growth at 3 uM incubated for 48 hrs by sulforhodamine B assay relative to control; details: read-out: Activity
[32] = tested on: SK-MEL-2; test: Growth inhibition of human SK-MEL-2 cells assessed as cell growth at 3 uM incubated for 48 hrs by sulforhodamine B assay relative to control; details: SK-MEL-2, 48 h, read-out: Activity
[33] = tested on: OVCAR-8; test: Growth inhibition of human OVCAR8 cells assessed as cell growth at 3 uM incubated for 48 hrs by sulforhodamine B assay relative to control; details: OVCAR-8, 48 h, read-out: Activity
[34] = tested on: NCI-H522; test: Growth inhibition of human NCI-H522 cells assessed as cell growth at 30 uM incubated for 48 hrs by sulforhodamine B assay relative to control; details: NCI-H522, 48 h, read-out: Activity

Row | Compound | growth at 0.01 µM [1] | growth at 0.01 µM [2] | growth at 0.01 µM [3] | growth at 0.1 µM [4] | growth at 1 µM [5] | growth at 1 µM [6] | growth at 1 µM [7] | growth at 1 µM [8] | growth at 1 µM [9] | growth at 1 µM [10] | growth at 1 µM [11] | growth at 10 µM [12] | growth at 10 µM [13] | growth at 10 µM [14] | growth at 0.003 µM [15] | growth at 0.003 µM [16] | growth at 0.003 µM [17] | growth at 0.003 µM [18] | growth at 0.003 µM [19] | growth at 0.003 µM [20] | also measured
1 | COc1cc2cc(Oc3ccc(NC(=O)Nc4ccc(Cl)c(Cl)c4)cc3)c(C)nc2cc1OC | 89% | 101% | 96% | 110% | 69% | 98% | 102% | 82% | 103% | 91% | 100% | 4% | -9% | 47% |  |  |  |  |  |  | 
2 | COc1cc2cc(Oc3ccc(NC(=O)Nc4ccc(Cl)c(C(F)(F)F)c4)cc3)c(C)nc2cc1OC |  |  |  |  |  |  |  |  |  |  |  |  |  |  | 97% | 95% | 108% | 98% | 96% | 104% | growth at 0.03 µM [21]: 92%; growth at 0.03 µM [22]: 100%; growth at 0.03 µM [23]: 98%; growth at 0.03 µM [24]: 93%; growth at 0.03 µM [25]: 95%; growth at 0.03 µM [26]: 98%; growth at 0.03 µM [27]: 83%; growth at 0.03 µM [28]: 97%; growth at 0.3 µM [29]: 85%; growth at 3 µM [30]: -2%; growth at 3 µM [31]: 35%; growth at 3 µM [32]: -29%; growth at 3 µM [33]: 6%; growth at 30 µM [34]: -81%
3 | COc1cc2cc(Oc3ccc(NC(=O)Nc4cc(C(F)(F)F)cc(C(F)(F)F)c4)cc3)c(C)nc2cc1OC | 97% | 101% | 92% | 100% | 23% | 69% | 59% | 49% | 73% | 17% | 19% | -33% | -31% | -85% |  |  |  |  |  |  | 
4 | Cc1nc2cc(O)c(O)cc2cc1Oc1ccc(NC(=O)Nc2ccc(Cl)c(Cl)c2)cc1 |  |  |  |  |  |  |  |  |  |  |  |  |  |  | 103% | 100% | 102% | 99% | 96% | 100% | growth at 0.03 µM [21]: 99%; growth at 0.03 µM [22]: 98%; growth at 0.03 µM [23]: 103%; growth at 0.03 µM [24]: 98%; growth at 0.03 µM [25]: 103%; growth at 0.03 µM [26]: 87%; growth at 0.03 µM [27]: 95%; growth at 0.03 µM [28]: 89%; growth at 0.3 µM [29]: 92%; growth at 3 µM [30]: 76%; growth at 3 µM [31]: 105%; growth at 3 µM [32]: 107%; growth at 3 µM [33]: 66%; growth at 30 µM [34]: -46%
